The results in this text go back to PMC5502055, “Phase II study of lanreotide autogel in Japanese patients with unresectable or metastatic well-differentiated neuroendocrine tumors” (Investigational New Drugs, 2017).

The test concerns Japanese patients with grade (G) 1/G2 NET. Description: Post hoc analysis of tumor growth rate (TGR). Type of test: in vivo, human. Also on record: key to TGR (0-Last): % change in tumor volume per month. The conditions noted are these: for TGR (0-Last): mean ± SD. The protocol:
The descriptive statistics of tumor growth rate (TGR) were calculated in a post hoc analysis of the FAS. The TGR estimates the change of the tumor volume during 1 month. This value incorporates the intervals between imaging tests, thus allowing a quantitative and dynamic evaluation of the tumor response. Scatter plots were prepared, and a subgroup analysis was conducted. To calculate TGR, results evaluated by the investigator were used before baseline, and results determined via central evaluation were used after baseline. There were not enough events for multivariate analysis, therefore univariate analysis based on the Cox proportional hazard model was implemented to assess prognostic factors.
The TGR per unit time was calculated in the post-hoc analysis. From past to 0 (baseline), the results of the investigator’s evaluation were used for tumor lesions, after baseline, the results of a central evaluation were used for the tumor lesions. The TGR (mean ± SD) before the first injection was 25.3 ± 35.7%, and the TGR from baseline to the last value was 5.4 ± 10.7% (Fig. 4).

`CC(C)[C@@H]1NC(=O)[C@H](CCCCN)NC(=O)[C@@H](Cc2c[nH]c3ccccc23)NC(=O)[C@H](Cc2ccc(O)cc2)NC(=O)[C@@H](NC(=O)[C@H](N)Cc2ccc3ccccc3c2)CSSC[C@@H](C(=O)N[C@H](C(N)=O)[C@@H](C)O)NC1=O` [lanreotide]: the “TGR from baseline to the last value (mean ± SD)” value (FAS n=28, post hoc, TGR before the first injection 25.3 ± 35.7%) is reported as 5.4 ± 10.7%. Further, the “TGR (0-Last)” value was determined as 5.44 ± 10.34 (FAS subgroup Age (years) >65, N=12); 5.41 ± 11.34 (FAS subgroup Age (years) ≤65, N=16); 3.41 ± 9.43 (FAS subgroup Baseline TGR (%/month) <10, N=13); 7.17 ± 11.76 (FAS subgroup Baseline TGR (%/month) ≥10, N=15); 1.65 ± 5.95 (FAS subgroup Grade of tumor Grade 1, N=9); 7.21 ± 12.09 (FAS subgroup Grade of tumor Grade 2, N=19). Besides, the “TGR (0-Last)” value (FAS subgroup Hepatic tumor load (%) >10 and ≤25, N=6) stood at 8.10 ± 15.47; the “TGR (0-Last)” value (FAS subgroup Hepatic tumor load (%) >25 and ≤50, N=3) stood at 9.49 ± 9.98; the “TGR (0-Last)” value (FAS subgroup Hepatic tumor load (%) ≥0 and ≤10, N=18) turned out to be 4.09 ± 9.60; the “TGR (0-Last)” value (FAS subgroup Ki67 index (%) >2 and ≤5, N=8) was 5.55 ± 8.50; the “TGR (0-Last)” value (FAS subgroup Ki67 index (%) >5 and <10, N=9) is listed as 4.63 ± 11.81; the “TGR (0-Last)” value (FAS subgroup Ki67 index (%) ≤ 2, N=8) is on record as 1.82 ± 6.34. For the same molecule, the “TGR (0-Last)” value was determined as 2.71 ± 10.00 (FAS subgroup Sex Female, N=9); 6.71 ± 11.07 (FAS subgroup Sex Male, N=19); 16.35 ± 11.02 (FAS subgroup primary tumor site Hindgut, N=8); 4.23 ± 6.12 (FAS subgroup primary tumor site Other/ Unknown, N=5); 0.43 ± 7.83 (FAS subgroup primary tumor site Pancreas, N=12); 0.69 ± 5.09 (FAS subgroup prior treatment for NET Absent, N=6). Further, the “TGR (0-Last)” value (FAS subgroup prior treatment for NET Present, N=22) came out at 6.72 ± 11.55; the “TGR (0-Last)” value (FAS subgroup progressive disease at baseline Absent, N=17) was determined as 1.99 ± 6.50; the “TGR (0-Last)” value (FAS subgroup progressive disease at baseline Present, N=11) is 10.74 ± 13.84. The “patients with decrease in TGR at the last value” (population with PD at baseline, 10 of 11 patients) came to 90.9%.
